Paper PMC6695731, “Application of a Substrate-Mediated Selection with c-Src Tyrosine Kinase to a DNA-Encoded Chemical Library” (Molecules, 2019)
“And” between values parts separate entries of the source, which are not always exact repeats. Equal entries are not always repeated. “Also recorded” adds a separate entry of the source.

Assays:
[1] = target: Src (Homo sapiens, UniProt P12931); test: HPLC-assessed inhibition of LYNtide phosphorylation; format: biochemical
Method: Kina se R e a c t ion w it h 1 0 nM Sr c
KR with LynT ide N-Alkyne (50uM)
Kina se R e a c t ion w it h 1 0 nM Sr c + Sr c D E L 1 0
300 ~ 25% phosphorylation
KR with LynT ide N-Alkyne (50uM) + Cmpd 10 (100uM)
Figure S11. […] The kinase reaction
30 min, if applicable) in 1x kinase buffer (as outlined in 4.6 NADH coupled assay, with 1mM ATP) for 30

[2] = target: T1, c-Src (Homo sapiens, UniProt P12931); test: HPLC and LC/MS analysis of phosphorylation of the compound by c-Src; format: biochemical
Method: (§1) To confirm this, compounds were tested with an NADH-based, coupled enzyme assay that also detects ADP generation. […] This additionally supported that the ADP-Glo activity observed was due to activation of ATP hydrolysis and not phosphotransfer to these compounds.
(a) on-DNA binding affinity to c-Src measured by fluorescence polarization in the presence of ATP (100 µM). […] Peak identity was verified by LC/MS analysis (Figure S9). […]
Kina se R e a c t ion w it h 1µM Src
Figure S7. HPLC Analysis of LYNtide Phosphorylation. The kinase reaction was performed by incubating 200 µM LYNtide with Src in 1x kinase buffer (as outlined in section 4.6 NADH coupled assay, […]
with 1mM ATP) for 30 min. […] Peak […]
identities were verified by LC/MS. The peak at 19 minutes is an impurity in the LYNtide alkyne preparation, which was also phosphorylated. […]
[M+H ]+ cal cd. […] O OH […]
Figure S9. LC/MS analysis of SrcDEL10 Phosphorylation. […]
µM ATP and 0.3 µM c-Src at 30 C for 16 hours. […]
and 10 µM c-Src at 30 C for 16 hours. […]

[3] = target: T1, c-Src; test: on-DNA binding affinity to c-Src by fluorescence polarization in the presence of ATP; details: ligand linked to 20-mer oligo hybridized to FAM oligo; ATP 100 µM; read-out: binding constant (Kd)
Method: These studies used the HPLC-purified ligand linked to 20-mer oligos, which were prepared for the prior qPCR validations under crude conditions. This construct was hybridized to a fluorescein-containing complementary oligo, and binding constants were determined by changes observed in fluorescence polarization, as previously described.
(a) on-DNA binding affinity to c-Src measured by fluorescence polarization in the presence of ATP (100 µM). […] Peak identity was verified by LC/MS analysis (Figure S9).

[4] = system: STAT3 phosphorylation in NME cells; test: cell signaling immunoblot, EGF-stimulated STAT3 phosphorylation (Src-dependent); format: cell-based, murine; details: 100 µM prior to EGF (50 ng/mL, 30 min)
Excerpt: Epidermal growth factor (EGF) stimulation of NME cells leads to STAT3 phosphorylation via a Src-dependent process. […] The broad specificity Src family inhibitor, PP2, was used as a positive control. Importantly, phosphorylation of ERK1/2, which occurs via a Src independent pathway, was not reduced. Similarly, autophosphorylation of EGFR at Y1068 was not affected.
NME cells were constructed via stable overexpression of EGFR in normal murine mammary gland (NMuMG) cells as previously described. These cells were cultured in DMEM containing 10% FBS, 10 μg/mL insulin, penicillin, and streptomycin. For cell signaling assays, cells were plated for 24 h prior to removal of the FBS for an additional 24 h. During this serum starvation, PP2 (Sigma, 529576) or SrcDEL10-ester were added as indicated, and cells were subsequently stimulated with EGF (50 ng/mL) (Goldbio, 1150-04) for 30 min. […] Differential binding of these antibodies was detected using their appropriate secondary antibodies.
NME cells were serum deprived for 24 h in the presence of vehicle control (DMSO), Src family inhibitor PP2 (10 µM), or SrcDEL10-ester (100 µM) for the indicated amounts of time. […] Equal protein aliquots were analyzed by immunoblot with the indicated antibodies. […]

[5] = target: T1, c-Src; test: radiolabel (32P-ATP) inhibition assay of LYNtide phosphorylation by c-Src; format: biochemical; details: 32P-ATP 50 µM, biotinylated-LYNtide 50 µM
Method: The original six off-DNA hits were tested for inhibition of c-Src activity. For these tests, we used ^32P-ATP as a substrate and detected phosphorylation levels of a biotinylated-LYNtide substrate after adsorption to streptavidin coated membranes. This assay should not be affected by activation of ATP hydrolysis or phosphotransfer to the small molecules. […] There was no apparent correlation of these values to the Km or kcat values in the prior assays as substrates.
Each hit molecule was preincubated with 1.2 nM c-Src at 30 °C for 30 min. The kinase reaction was initiated with the addition of 50 μM LYNtide and 50 μM ATP with 0.15 μCi gamma ^32P ATP at 30 °C for 10 min. The kinase reaction samples (2 µL) were spotted on P81 filter paper consisting of 1.5 cm squares. After air dry, the P81 papers were washed 4 times with 0.5% phosphoric acid for 5 min each. The P81 papers were washed one time with acetone for 5 min. The papers were then allowed to air dry for about 20 min. The dried P81 papers were analyzed by liquid scintillation counter.
Figure 6 Inhibition of hit molecules in a radiolabel assay with ^32P-ATP (50 µM) and biotinylated-LYNtide (50 µM) as substrates.

[6] = target: T1, c-Src; test: ADP-Glo assay of compounds as c-Src substrates (ADP production); format: biochemical
Method: Hit molecules were initially characterized as substrates for c-Src using the luciferase-based ADP-Glo assay (Promega). All six molecules appeared to be efficient substrates for Src kinase.
Kinase reaction was performed as follows 1x kinase buffer (25 mM Tris-HCl (pH 7.5), 2 mM dithiothreitol (DTT), 0.1 mM Na3VO4, 10 mM MgCl2), 1 mM ATP, different concentrations (1 μM to 100 μM) of substrates (either off DNA or on DNA hit molecules), and 12 nM rSrc by incubation for 2 h at 30 °C. After that, distinct 55mers were annealed to each kinase reaction, as previously described. The annealed reactions were incubated with anti Pho-Tyr loaded protein G magnetic bead at RT for 30 min. After washing by three times 20 μL 1xPBST with 1 mg/mL BSA, 1 mg/mL tRNAs), the captured samples were eluted by 20 μL of 1 mM phenylphosphate. The resulting supernatant was then used as a template in qPCR.
After the kinase reaction was performed as previous section, the reaction mixture (5 μL) was incubated with 5 µL of ADP-Glo™ reagent at RT for 40 min and then add 10 µL of kinase detection reagent at RT for 1 h. The luminescence was measure by plate reader.

[7] = target: T1, c-Src; test: substrate-mediated selection of DNA conjugates (c-Src treatment, anti-phosphotyrosine pulldown), enrichment by qPCR; format: biochemical; details: purified DNA conjugates, with kinase treatment
Method: To mimic library selection conditions, a DNA-LYNtide construct was mixed with a control construct at a ratio of 1 to 500. This mixture was treated at 50 nM total DNA concentration with Src kinase and the selection was applied. We observed robust enrichment (2600-fold) and recovery (9%) of the LYNtide construct by qPCR (Figure S3).
We then questioned if SrcDEL10 was indeed selected from the library based on the ability to serve as a Src substrate and accept a phosphate.
For optimization of substrate-based selection, two unique 180-mer constructs were prepared by PCR, as previously described. Each contained two unique 20-mer sequences for specific amplification and detection in qPCR. One was prepared with an unmodified forward primer as a control. The other was prepared using a LYNtide 20-mer oligo conjugate as a primer.
Kinase reaction was performed as follows 1x kinase buffer (25 mM Tris-HCl (pH 7.5), 2 mM dithiothreitol (DTT), 0.1 mM Na3VO4, 10 mM MgCl2), 1 mM ATP, different concentrations (1 μM to 100 μM) of substrates (either off DNA or on DNA hit molecules), and 12 nM rSrc by incubation for 2 h at 30 °C. After that, distinct 55mers were annealed to each kinase reaction, as previously described. […]
Figure S3. […] In a model enrichment assay, enrichment for tyrosine kinase substrates was detected by qPCR of model 180-mer constructs. […]

[8] = target: T1, c-Src; test: NADH-based coupled enzyme assay detecting ADP generation; format: biochemical; details: 1 mM ATP, 100 µM compound, 12 nM Src, 30 °C, 3 h
Method: as §1
Kinase reaction was performed as follows 1x kinase buffer (25 mM Tris-HCl (pH 7.5), 2 mM dithiothreitol (DTT), 0.1 mM Na3VO4, 10 mM MgCl2), 1 mM ATP, 100 μM peptides and 12 nM Src at 30 °C for 3 h. The kinase reaction mixture was incubated with 30 unit/mL lactic dehydrogenase (LDH), 20 unit/mL pyruvate kinase (PK), 2 mM phosphoenolpyruvate (PEP), and 1 mM NADH. The absorbance of NADH was monitored at 340 nm.
Figure S8. NADH Coupled Assay of Hit Molecules with c-Src. Samples were composed of 1 mM ATP,
100 µM putative substrate molecules, and 12 nM c-Src kinase at 30 C for 3 hours. Full method description
is provided in Methods and Materials 4.6 NADH assay.

[9] = system: c-Src; details: LYNtide kinetic parameters for Src; cited from earlier work
[10] = Table S3, ADP-Glo assay of SrcDEL10 derivatives, enzyme Src

inhibition at 100 µM [1] [%]	LYNtide phosphorylation in presence of compound ([1]; 100 µM SrcDEL10, 50 µM LYNtide, 10 nM Src, 50% without compound)	SrcDEL10-phos. fraction by LC/MS ([2]; SrcDEL10 100 µM, 100 µM ATP, 10 µM c-Src, 30 C, 16 hours (Figure S9b)) [%]	phosphorylated compound formed ([2]; enzyme 1 µM, SrcDEL10 200 µM, ATP 1 mM, HPLC, LC/MS)	Kd [3] [µM]	IC50 [5] [µM]	kcat ([6]; ADP-Glo assay) [s⁻¹]	Km ([6]; ADP-Glo assay, compound as substrate of c-Src)	Km [6, 10] [µM]	Vmax [6, 10] [µM/min]	kcat [6, 10] [s⁻¹]	enrichment in qPCR selection assay [7]	ADP generation relative to compound [8]	Compound	STAT3 phosphorylation levels after EGF stimulation [4]	extent of phosphorylation ([2]; 1 µM c-Src, 200 µM LYNtide, 1 mM ATP, 30 min)	Km [9] [µM]	kcat [9] [s⁻¹]
~50	~ 25%	54	~ 1%	7.5	48								NC(=O)CN(CCc1ccc(O)cc1)C(=O)[C@H](CC(=O)O)NC(=O)c1ccc(CN(CC2CC2)C(=O)CCO)cc1 [SrcDEL10]	No reduction			
						6.5	5 µM and 5.2 µM	5.23	1.17	6.47	10,000 fold	approximately one equivalent	DEDIYGVLP [LYNtide, optimal peptide substrate for Lyn tyrosine kinase, a Src family kinase, reference compound]		full phosphorylation; also recorded: fully phosphorylated	18	2.0
